Experimental data published in patent US8053013B2, “Flavour modulating substances” (Quest International Services B.V., priority 2004, dated 2011).

Columns and labels:
[1] = Tasting session by a panel of experienced flavourists: solution in tap water (Example 7); conditions: 0.1 wt % in tap water
Procedure: For a tasting session by a panel of experienced flavourists a solution comprising 0.1 wt % of a flavour composition as prepared in example 4 in tap water was prepared.

[2] = Panel evaluation of HIT Duck Flavour samples with and without N Lactoyl glucosamine (Example 8); conditions: Sample B: 0.006% N Lactoyl glucosamine with 0.6% NaCl, 0.03% MSG, 0.1% HIT Duck Flavour (Quest)
Procedure: Two samples were prepared as follow and compared:
Sample A: 0.6% of NaCl, 0.03% of MSG and 0.1% of HIT Duck Flavour (Quest)
Sample B: 0.6% of NaCl, 0.03% of MSG, 0.1% of HIT Duck Flavour (Quest) and 0.006% N Lactoyl glucosamine as prepared in example 4.
The samples were evaluated by a panel of experienced flavourists. There was general agreement about the difference in taste between the samples: […]

## CC(O)C(=O)N[C@H]1C(O)O[C@H](CO)[C@@H](O)[C@@H]1O (some centres unmarked) [Example 4, N-Lactoyl-Glucosamine]
[1]
  taste of the solution described by panellists: strong metallic, bloody, raw meat like
[2]
  taste described by flavourists, compared with sample A without the substance: savoury duck flavour, with slightly metallic taste, and more meaty character, authenticity, and naturalness than sample A
